# ChEMBL document CHEMBL5034023, “Development of Multifunctional and Orally Active Cyclic Peptide Agonists of Opioid/Neuropeptide FF Receptors that Produce Potent, Long-Lasting, and Peripherally Restricted Antinociception with Diminished Side Effects” (J Med Chem, 2021)
# Activity calls are given as the source filed them. Bridge positions count the residues as written; N and C are the ends. Square brackets hold non-standard residues; d marks the D form. Peptide text beside a SMILES is read from it. NMeF = CN[C@@H](Cc1ccccc1)C(=O)O
# Experiments:
# [1] = biological target: Neuropeptide FF receptor 1 (Homo sapiens, UniProt Q9GZQ6); assay: (§1) Agonist activity at NPFF1R (unknown origin) expressed in HEK293-A cells assessed as inhibition of forskolin-induced cAMP accumulation by measuring maximal efficacy preincubated for 30 mins in presence of 3-isobutyl-1-methylxanthine followed by forskolin and compound addition by competitive PKA binding assay relative to control; format: functional, cell-based; details: filed as agonist
# Chain of Neuropeptide FF receptor 1 (Q9GZQ6 whole entry): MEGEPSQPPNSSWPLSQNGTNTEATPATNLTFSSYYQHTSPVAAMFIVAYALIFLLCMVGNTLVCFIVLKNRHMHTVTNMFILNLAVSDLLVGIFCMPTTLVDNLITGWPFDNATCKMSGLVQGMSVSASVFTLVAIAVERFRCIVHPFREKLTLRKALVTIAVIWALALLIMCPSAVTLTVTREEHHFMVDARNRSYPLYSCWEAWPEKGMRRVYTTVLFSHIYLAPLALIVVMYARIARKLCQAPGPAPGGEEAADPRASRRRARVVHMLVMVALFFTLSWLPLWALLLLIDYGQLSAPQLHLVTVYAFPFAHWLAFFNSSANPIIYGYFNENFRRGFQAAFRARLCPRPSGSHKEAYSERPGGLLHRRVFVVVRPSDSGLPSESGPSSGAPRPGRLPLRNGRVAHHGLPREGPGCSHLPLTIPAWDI
# Mus musculus [2] = assay: Antinociceptive activity against Kunming mouse model of thermal-induced nociception assessed as prolongation of tail-flick latency period at 2 pmol, icv in presence of NTI measured up to 240 mins by tail-flick test; format: functional, organism-based; details: time min <=240
# [3] = biological target: T1, Neuropeptide FF receptor 2 (Homo sapiens, UniProt Q9Y5X5); assay: Agonist activity at NPFF2R (unknown origin) expressed in HEK293-A cells assessed as inhibition of forskolin-induced cAMP accumulation preincubated for 30 mins in presence of 3-isobutyl-1-methylxanthine followed by forskolin and compound addition by competitive PKA binding assay; format: functional, cell-based; details: read-out: EC50
# T1 sequence (Q9Y5X5 whole entry): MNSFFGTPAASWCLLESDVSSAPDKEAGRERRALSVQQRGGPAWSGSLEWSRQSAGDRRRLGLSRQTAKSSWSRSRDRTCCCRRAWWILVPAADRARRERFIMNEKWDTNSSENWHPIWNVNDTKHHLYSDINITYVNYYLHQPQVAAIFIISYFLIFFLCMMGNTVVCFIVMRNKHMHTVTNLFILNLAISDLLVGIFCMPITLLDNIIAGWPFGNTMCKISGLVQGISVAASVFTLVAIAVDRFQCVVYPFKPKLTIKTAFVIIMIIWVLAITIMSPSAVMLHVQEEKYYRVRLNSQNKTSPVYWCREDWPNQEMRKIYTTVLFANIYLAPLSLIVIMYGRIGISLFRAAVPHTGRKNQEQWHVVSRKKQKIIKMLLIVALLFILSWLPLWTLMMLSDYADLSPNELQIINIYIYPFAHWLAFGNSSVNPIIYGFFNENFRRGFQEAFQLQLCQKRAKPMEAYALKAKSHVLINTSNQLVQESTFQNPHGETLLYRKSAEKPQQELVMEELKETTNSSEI
# Mus musculus [4] = assay: Antinociceptive activity against po dosed Kunming mouse model of carrageenan-induced mechanical inflammatory pain assessed as reduction in paw withdrawl threshold measured up to 180 mins by Von Frey assay; format: functional; details: 3 h, time min <=180
# Mus musculus [5] = assay: Antinociceptive activity against Kunming mouse model of thermal-induced nociception assessed as peripheral analgesia administered subcutaneously by tail-flick test; format: functional; details: sc
# Mus musculus [6] = assay: Antinociceptive activity against Kunming mouse model of thermal-induced nociception assessed as prolongation of tail-flick latency period at 0.5 pmol, icv in presence of RF9 measured up to 240 mins by tail-flick test; format: functional, organism-based; details: time min <=240
# Mus musculus [7] = assay: Antinociceptive activity in Kunming mouse assessed as analgesic tolerance by measuring fold shift in maximal possible effect at 8.68 nmol/kg, po administered for 8 consecutive days by tail flick test; format: functional
# [8] = Clearance in Kunming mouse at 868.1 nmol/kg, po measured up to 120 mins by LC-MS/MS analysis; format: ADME, organism-based; details: in vivo
# [9] = Tmax in Kunming mouse at 868.1 nmol/kg, po measured up to 120 mins by LC-MS/MS analysis; format: ADME, organism-based; details: in vivo
# Mus musculus [10] = assay: Antinociceptive activity against Kunming mouse model of thermal-induced nociception assessed as prolongation of tail-flick latency period at 8.68 nmol/kg, sc in presence of RF9 at 5 mg/kg, sc measured up to 240 mins by tail-flick test; format: functional, organism-based; details: time min <=240
# Mus musculus [11] = assay: Antinociceptive activity against po dosed Kunming mouse model of thermal-induced nociception assessed as prolongation of tail-flick latency period measured up to 240 mins by tail-flick test; format: functional; details: 4 h, time min <=240
# [12] = Toxicity in Kunming mouse assessed as effect on motor coordination at 86.8 to 868.1 nmol/kg, po measured after 10 to 40 mins by Rotarod test; format: organism-based; details: in vivo, dose lower 86.8 nmol/kg, time lower 10 min, dose upper 868.1 nmol/kg, time upper 40 min
# [13] = Toxicity in Kunming mouse assessed as inhibition of gastrointestinal transit at 868.1 nmol/kg, po in presence of RF9 at 10 mg/kg, ip measured after 30 mins by charcoal meal test; format: organism-based; details: in vivo, 0.5 h
# Mus musculus [14] = assay: Antinociceptive activity against icv dosed Kunming mouse model of thermal-induced nociception assessed as prolongation of tail-flick latency period measured up to 240 mins by tail-flick test; format: functional; details: time min <=240
# [15] = Clearance in Kunming mouse at 868.1 nmol/kg, iv measured up to 120 mins by LC-MS/MS analysis; format: ADME, organism-based; details: in vivo
# Mu-type opioid receptor = Mu-type opioid receptor (Homo sapiens, UniProt P35372)
# Chain of Mu-type opioid receptor (P35372 whole entry): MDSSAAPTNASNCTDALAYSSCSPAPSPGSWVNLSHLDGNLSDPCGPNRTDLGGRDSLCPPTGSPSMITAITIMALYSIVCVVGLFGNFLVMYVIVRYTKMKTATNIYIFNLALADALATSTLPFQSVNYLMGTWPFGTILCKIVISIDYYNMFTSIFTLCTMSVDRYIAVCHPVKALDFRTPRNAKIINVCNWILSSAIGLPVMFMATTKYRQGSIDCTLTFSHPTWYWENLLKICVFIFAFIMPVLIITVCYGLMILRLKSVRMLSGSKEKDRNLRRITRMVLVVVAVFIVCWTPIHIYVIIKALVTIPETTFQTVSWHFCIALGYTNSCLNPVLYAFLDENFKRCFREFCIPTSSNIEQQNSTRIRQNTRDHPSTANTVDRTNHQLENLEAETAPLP
# Mus musculus [16] = assay: Antinociceptive activity against Kunming mouse model of thermal-induced nociception assessed as maximum possible effect at 8.68 nmol/kg, po measured after 30 min by tail flick test relative to control; format: functional; details: 0.5 h
# Mus musculus [17] = assay: Antinociceptive activity against Kunming mouse model of thermal-induced nociception assessed as prolongation of tail-flick latency period at 8.68 nmol/kg, sc in presence of NALM at 1 mg/kg, sc measured up to 240 mins by tail-flick test; format: functional, organism-based; details: time min <=240
# Mus musculus [18] = assay: Antinociception activity in po dosed Kunming mouse model of sciatic nerve CCI-induced neuropathic pain assessed as reduction in mechanical hypersensitivity by measuring reduction in paw withdrawl threshold measured up to 180 mins by Von Frey test; format: functional; details: 3 h, time min <=180
# [19] = Toxicity in Kunming mouse assessed as effect on arterial partial pressure of oxygen at 868.1 nmol/kg, po measured up to 30 mins by blood gas analyzer; format: organism-based; details: in vivo, 0.5 h
# Mus musculus [20] = assay: Antinociceptive activity against Kunming mouse model of thermal-induced nociception assessed as prolongation of tail-flick latency period at 8.68 nmol/kg, sc in presence of nor-BNI at 1 mg/kg, sc measured up to 240 mins by tail-flick test; format: functional, organism-based; details: time min <=240
# [21] = AUC (0 to infinity) in Kunming mouse at 868.1 nmol/kg, po measured up to 120 mins by LC-MS/MS analysis; format: ADME, organism-based; design: route oral, dose 868.1 nmol/kg, time <=120; details: in vivo, 2 h
# [22] = Toxicity in Kunming mouse assessed as effect on arterial partial pressure of carbon dioxide at 868.1 nmol/kg, po measured up to 30 mins by blood gas analyzer; format: organism-based; details: in vivo, 0.5 h
# [23] = biological target: T1, Neuropeptide FF receptor 2; assay: as §1, with “NPFF2R” for “NPFF1R”; format: functional, cell-based; details: filed as agonist
# Mus musculus [24] = assay: Antinociceptive activity against Kunming mouse model of thermal-induced nociception assessed as prolongation of tail-flick latency period at 8.68 nmol/kg, po in presence of beta-FNA at 1 mg/kg, ip measured up to 240 mins by tail-flick test; format: functional, organism-based; details: time min <=240
# Mus musculus [25] = assay: Antinociceptive activity against Kunming mouse model of thermal-induced nociception assessed as prolongation of tail-flick latency period at 8.68 nmol/kg, po in presence of nor-BNI at 1 mg/kg, ip measured up to 240 mins by tail-flick test; format: functional, organism-based; details: time min <=240
# [26] = Cmax in Kunming mouse at 868.1 nmol/kg, iv measured up to 120 mins by LC-MS/MS analysis; format: ADME, organism-based; design: route intravenous, dose 868.1 nmol/kg, time <=120; details: in vivo
# Mus musculus [27] = assay: Antinociceptive activity in Kunming mouse assessed as analgesic tolerance administered subcutaneously once daily for 8 days by tail flick test; format: functional, organism-based; details: time 8.0 day
# [28] = biological target: Delta-type opioid receptor (Homo sapiens, UniProt P41143); assay: Agonist activity at DOR (unknown origin) expressed in HEK293-A cells assessed as inhibition of forskolin-induced cAMP accumulation preincubated for 30 mins in presence of 3-isobutyl-1-methylxanthine followed by forskolin and compound addition by competitive PKA binding assay relative to control; format: functional, cell-based; details: filed as agonist
# Chain of Delta-type opioid receptor (P41143 whole entry): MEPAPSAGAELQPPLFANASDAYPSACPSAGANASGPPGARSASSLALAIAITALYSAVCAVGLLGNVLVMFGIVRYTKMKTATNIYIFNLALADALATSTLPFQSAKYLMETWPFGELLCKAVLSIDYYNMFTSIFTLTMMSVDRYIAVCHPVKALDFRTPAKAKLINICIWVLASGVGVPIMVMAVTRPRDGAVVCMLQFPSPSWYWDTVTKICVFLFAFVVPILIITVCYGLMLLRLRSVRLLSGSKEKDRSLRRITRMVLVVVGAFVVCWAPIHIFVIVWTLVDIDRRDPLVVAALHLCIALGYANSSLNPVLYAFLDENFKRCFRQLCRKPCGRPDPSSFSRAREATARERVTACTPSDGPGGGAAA
# [29] = Absolute oral bioavailability in Kunming mouse at 868.1 nmol/kg measured up to 120 mins by LC-MS/MS analysis; format: ADME, organism-based; details: in vivo
# Mus musculus [30] = assay: Antinociceptive activity against Kunming mouse model of thermal-induced nociception assessed as prolongation of tail-flick latency period at 8.68 nmol/kg, po in presence of NALM at 5 nmol, icv measured up to 240 mins by tail-flick test; format: functional, organism-based; details: time min <=240
# Mus musculus [31] = assay: Antinociceptive activity against Kunming mouse model of thermal-induced nociception assessed as maximum possible effect at 8.68 nmol/kg, po measured after 20 min by tail flick test relative to control; format: functional
structure (smiles),measurement,setting,value
CN1C(=O)CNC(=O)[C@H](NC(=O)[C@@H](N)Cc2ccc(O)cc2)CCCCNC(=O)C[C@@H](C(=O)N2CCC[C@H]2C(=O)N[C@@H](CCC(N)=O)C(=O)N[C@@H](CCCNC(=N)N)C(=O)N[C@@H](Cc2ccccc2)C(N)=O)NC(=O)[C@@H]1Cc1ccccc1 (H-Y[dK]G[NMeF]DPQRF-NH2; lactam 2-5),Emax,[1],73.7%
same,Activity,Mus musculus [2],Active
same,EC50,[3],49.8 nM
same,ED50,Mus musculus [4],0.00344 µmol/kg
same,ED50,Mus musculus [5],0.00028 µmol/kg
same,Activity,Mus musculus [6],Active
same,fold change (FC),Mus musculus [7],0.92
same,CL/F,[8],130 mL/min/kg
same,Tmax,[9],1 min
same,Activity,Mus musculus [10],Active
same,ED50,Mus musculus [11],0.00119 µmol/kg
same,Activity,[12],Non-Toxic
same,Activity,[13],Non-Toxic
same,ED50,Mus musculus [14],0.63 pmol
same,clearance,[15],30 mL/min/kg
same,EC50,Mu-type opioid receptor,93.5 nM
same,MPE,Mus musculus [16],94.2%
same,Activity,Mus musculus [17],inactive
same,ED50,Mus musculus [18],0.00334 µmol/kg
same,Activity,[19],Non-Toxic
same,Activity,Mus musculus [20],inactive
same,AUC,[21],13800.8 µg·min/L
same,Activity,[22],Non-Toxic
same,Emax,[23],59.5%
same,Activity,Mus musculus [24],inactive
same,Activity,Mus musculus [25],inactive
same,Cmax,[26],5070 ng/mL
same,Activity,Mus musculus [27],inactive
same,Emax,[28],56.1%
same,bioavailability,[29],43.8%
same,Activity,Mus musculus [30],Active
same,MPE,Mus musculus [31],89.7%
